Target: T1, Protein cereblon [318-426] (UniProt Q96SW2)
T1 construct: 318-426
Assay: Measurement of Molecular Interactions Using Surface Plasmon Resonance (SPR)
Description: The instrument used was the Biacore T200 (manufactured by Cytiva). […] The sensor chip used was Sensor Chip SA (manufactured by Cytiva). The CRBN truncate was immobilized using the affinity between SA (streptavidin) on the sensor chip and the Avi-tag. The running buffer was a mixture of 10 mM HEPES pH 7.5, 150 mM NaCl, 1 mM TCEP, 0.005% Tween 20, and 2% DMSO. […] Contact time and dissociation time were set at 60 seconds and 120 seconds, respectively.

T1 sequence (Q96SW2 318-426): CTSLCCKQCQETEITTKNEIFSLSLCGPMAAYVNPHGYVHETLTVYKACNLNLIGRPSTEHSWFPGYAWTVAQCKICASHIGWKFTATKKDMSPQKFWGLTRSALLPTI

| Structure (SMILES) | Kd |
| --- | --- |
| CC(C)(C)OC(=O)C1=CC(C2CCCC(=O)NC2=O)CC=C1 (stereo unspecified) [US20250388593, Example 60] | in the range around 75 µM |
| O=C1CCCC(C2=CC([N+](=O)[O-])CC=C2)C(=O)N1 (stereo unspecified) [US20250388593, Example 62] | > 100 µM |
| O=C1CCCC(c2cc([N+](=O)[O-])ccc2Cl)C(=O)N1 (stereo unspecified) [US20250388593, Example 63] | > 100 µM |
| COC(=O)C(CCCCNC(=O)OCc1ccccc1)Oc1ccccc1[N+](=O)[O-] (stereo unspecified) [US20250388593, Example 66-1] | > 100 µM |
| CC(C)(C)OC(=O)N1CCN(C(=O)CN2CCC3(CCCC(=O)NC3=O)CC2=O)CC1 (stereo unspecified) [US20250388593, Example 98] | > 100 µM |
| CC(C)(C)OC(=O)CN1CCC2(CCCC(=O)NC2=O)CC1=O (stereo unspecified) [US20250388593, Example 107] | > 100 µM |
| CC(=O)Nc1ccc2nc(N3CCCC(=O)NC3=O)sc2c1 [US20250388593, Example 119] | < 50 µM |
| CC(C)(C)OC(=O)CCc1nn(C2CCCC(=O)NC2=O)c2ccccc12 (stereo unspecified) [US20250388593, Example 137] | < 50 µM |
| Cn1c(=O)n(C2CCCC(=O)NC2=O)c2cccc(CCCCCCCC(=O)OC(C)(C)C)c21 (stereo unspecified) [US20250388593, Example 207] | > 100 µM |
| Cn1c(=O)n(C2CCCC(=O)NC2=O)c2cccc(CCC(=O)OC(C)(C)C)c21 (stereo unspecified) [US20250388593, Example 213] | < 50 µM |
| Cn1c(=O)n(C2CCCC(=O)NC2=O)c2ccc(C#CCCCCCC(=O)OC(C)(C)C)cc21 (stereo unspecified) [US20250388593, Example 215] | > 100 µM |
| Cn1c(=O)n(C2CCCC(=O)NC2=O)c2ccc(CCCCCCCC(=O)OC(C)(C)C)cc21 (stereo unspecified) [US20250388593, Example 216] | > 100 µM |
| Cn1c(=O)n(C2CCCC(=O)NC2=O)c2ccc(CCCCC(=O)OC(C)(C)C)cc21 (stereo unspecified) [US20250388593, Example 217] | < 50 µM |
| O=C1CCCC(N2C(=O)OCC3=C2C=CC([N+](=O)[O-])C3)C(=O)N1 (stereo unspecified) [US20250388593, Example 274] | > 100 µM |
| CC(C)(C)OC(=O)N1CCC(c2ccc(OC3CCCCNC3=O)cc2)CC1 (stereo unspecified) [US20250388593, Example 276] | > 100 µM |
| CN(C1CCCC(=O)NC1=O)S(=O)(=O)c1ccc(CCCCC(=O)OC(C)(C)C)cc1 (stereo unspecified) [US20250388593, Example 279] | > 100 µM |
| Cn1nc(N2CC=CC(=O)NC2=O)c2ccc(C3CCN(C(=O)OC(C)(C)C)CC3)cc21 [US20250388593, Example 282] | > 100 µM |
| CC(C)(C)OC(=O)CCCCCNc1cccc(C2CCCC(=O)NC2=O)c1 (stereo unspecified) [US20250388593, Example 298] | > 100 µM |
| CC(C)(C)OC(=O)CCCCCNc1ccc(N2CCC3(CCCC(=O)NC3=O)CC2=O)cc1 (stereo unspecified) [US20250388593, Example 301] | > 100 µM |
| CC(C)(C)OC(=O)CCCCCNc1ccc(N2CCC(N3CCCC(=O)NC3=O)C2=O)cc1 (stereo unspecified) [US20250388593, Example 302] | > 100 µM |
| CC(C)(C)OC(=O)NCCCCCCCNc1ccc(N2CCC3(CCCC(=O)NC3=O)CC2=O)cc1 (stereo unspecified) [US20250388593, Example 304] | > 100 µM |

From BindingDB's records for patent US20250388593 (Mitsubishi Tanabe Pharma, 2025)
